Source: paper PMC4043872 (Chembiochem : a European journal of chemical biology, 2014)

Experiments:
[1] = target: T1, ALDH3A1 activity in A549 cell lysates (Homo sapiens, UniProt P30838); assay: Cell lysate ALDH3A1 activity in presence and absence of CB29, A549; format: biochemical; conditions: 50 μM CB29, […] NADP+, 1 mM benzaldehyde
T1 sequence (P30838 1-453): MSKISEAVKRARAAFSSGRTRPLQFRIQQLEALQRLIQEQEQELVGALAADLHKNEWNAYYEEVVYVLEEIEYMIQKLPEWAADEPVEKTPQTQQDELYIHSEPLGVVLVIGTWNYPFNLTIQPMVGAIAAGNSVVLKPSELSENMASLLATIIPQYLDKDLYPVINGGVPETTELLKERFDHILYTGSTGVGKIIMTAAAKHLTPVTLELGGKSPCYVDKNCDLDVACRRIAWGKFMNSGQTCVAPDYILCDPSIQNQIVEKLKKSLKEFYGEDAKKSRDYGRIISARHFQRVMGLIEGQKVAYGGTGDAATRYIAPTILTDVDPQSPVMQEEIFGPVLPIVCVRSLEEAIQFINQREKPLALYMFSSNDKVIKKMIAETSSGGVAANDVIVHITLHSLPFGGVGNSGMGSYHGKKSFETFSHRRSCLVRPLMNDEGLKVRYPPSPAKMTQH

[2] = Formation of homogeneous solution; format: physicochemical; conditions: in the presence of […] DMSO
ALDH1A3 = target: T2, ALDH1A3 (Homo sapiens, UniProt P47895); assay: ALDH1A3 activity assay, propionaldehyde/NAD+; format: biochemical; conditions: up to 250 μM
T2 sequence (P47895 1-512): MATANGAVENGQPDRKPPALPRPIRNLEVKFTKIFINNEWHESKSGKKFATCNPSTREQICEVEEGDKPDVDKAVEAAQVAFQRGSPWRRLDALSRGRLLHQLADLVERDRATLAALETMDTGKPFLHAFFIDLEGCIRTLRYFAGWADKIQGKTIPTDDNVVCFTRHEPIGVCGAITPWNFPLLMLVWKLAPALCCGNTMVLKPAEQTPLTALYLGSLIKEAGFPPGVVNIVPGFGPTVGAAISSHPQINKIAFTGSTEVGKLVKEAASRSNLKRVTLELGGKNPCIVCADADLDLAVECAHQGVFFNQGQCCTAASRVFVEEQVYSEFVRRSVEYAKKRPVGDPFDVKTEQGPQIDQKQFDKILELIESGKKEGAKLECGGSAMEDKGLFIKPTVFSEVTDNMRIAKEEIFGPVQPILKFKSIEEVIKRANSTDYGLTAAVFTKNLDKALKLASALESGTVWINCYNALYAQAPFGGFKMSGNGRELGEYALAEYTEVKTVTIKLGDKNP

ALDH3A1 [3] = target: T3, ALDH3A1 (Homo sapiens, UniProt P30838); assay: Recombinant ALDH3A1 activity in presence and absence of CB29; format: biochemical; conditions: 50 μM CB29, […] NADP+, 1 mM benzaldehyde
T3 sequence (P30838 1-453): T1 sequence (P30838 1-453)

[4] = target: T4, ALDH3A1 activity in SF767 cell lysates (Homo sapiens, UniProt P30838); assay: Cell lysate ALDH3A1 activity in presence and absence of CB29, SF767; format: biochemical; conditions: 50 μM CB29, […] NADP+, 1 mM benzaldehyde
T4 sequence (P30838 1-453): T1 sequence (P30838 1-453)

CCD-13Lu cells = assay: Colorimetric MTT assay for mafosfamide sensitivity, CCD-13Lu; conditions: 19 hours, Figure 4C
A549 cells = conditions: 50 μM inhibitor alone, 19 hours, MTT, Figure 4A grey bars
ALDH2 = target: T5, ALDH2 (Homo sapiens, UniProt P05091); assay: ALDH2 inhibition, propionaldehyde as substrate; format: biochemical; conditions: up to 250 μM
T5 sequence (P05091 18-517): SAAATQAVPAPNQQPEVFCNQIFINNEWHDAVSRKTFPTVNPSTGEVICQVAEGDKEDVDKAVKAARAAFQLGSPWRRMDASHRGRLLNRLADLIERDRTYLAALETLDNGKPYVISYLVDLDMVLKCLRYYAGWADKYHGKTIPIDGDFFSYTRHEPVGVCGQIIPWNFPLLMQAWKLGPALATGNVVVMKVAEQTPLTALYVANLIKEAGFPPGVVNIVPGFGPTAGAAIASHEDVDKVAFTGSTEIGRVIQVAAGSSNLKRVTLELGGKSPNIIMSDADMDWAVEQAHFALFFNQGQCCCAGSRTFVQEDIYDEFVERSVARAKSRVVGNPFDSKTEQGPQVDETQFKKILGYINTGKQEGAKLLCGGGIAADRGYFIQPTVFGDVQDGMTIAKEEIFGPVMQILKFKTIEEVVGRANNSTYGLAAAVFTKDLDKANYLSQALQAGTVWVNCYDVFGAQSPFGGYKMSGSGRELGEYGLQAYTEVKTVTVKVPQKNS

ALDH1B1 = target: T6, ALDH1B1 (Homo sapiens, UniProt P30837); assay: ALDH1B1 activity assay, propionaldehyde/NAD+; format: biochemical; conditions: up to 250 μM
T6 sequence (P30837 18-517): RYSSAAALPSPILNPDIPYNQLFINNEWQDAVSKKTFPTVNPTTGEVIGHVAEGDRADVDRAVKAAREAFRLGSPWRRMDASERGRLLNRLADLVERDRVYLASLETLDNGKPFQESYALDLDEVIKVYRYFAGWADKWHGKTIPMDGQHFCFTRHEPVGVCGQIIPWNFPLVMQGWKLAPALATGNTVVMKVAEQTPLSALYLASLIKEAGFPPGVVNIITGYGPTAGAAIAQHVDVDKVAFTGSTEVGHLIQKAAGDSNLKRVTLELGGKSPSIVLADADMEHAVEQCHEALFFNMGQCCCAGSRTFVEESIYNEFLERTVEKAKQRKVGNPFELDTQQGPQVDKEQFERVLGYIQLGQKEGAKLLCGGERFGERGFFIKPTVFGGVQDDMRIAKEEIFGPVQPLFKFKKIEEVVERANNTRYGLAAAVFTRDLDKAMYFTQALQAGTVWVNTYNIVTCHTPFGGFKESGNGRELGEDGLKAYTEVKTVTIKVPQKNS

ALDH1A1 = target: T7, ALDH1A1 (Homo sapiens, UniProt P00352); assay: ALDH1A1 inhibition, propionaldehyde as substrate; format: biochemical; conditions: up to 250 μM
T7 sequence (P00352 1-501): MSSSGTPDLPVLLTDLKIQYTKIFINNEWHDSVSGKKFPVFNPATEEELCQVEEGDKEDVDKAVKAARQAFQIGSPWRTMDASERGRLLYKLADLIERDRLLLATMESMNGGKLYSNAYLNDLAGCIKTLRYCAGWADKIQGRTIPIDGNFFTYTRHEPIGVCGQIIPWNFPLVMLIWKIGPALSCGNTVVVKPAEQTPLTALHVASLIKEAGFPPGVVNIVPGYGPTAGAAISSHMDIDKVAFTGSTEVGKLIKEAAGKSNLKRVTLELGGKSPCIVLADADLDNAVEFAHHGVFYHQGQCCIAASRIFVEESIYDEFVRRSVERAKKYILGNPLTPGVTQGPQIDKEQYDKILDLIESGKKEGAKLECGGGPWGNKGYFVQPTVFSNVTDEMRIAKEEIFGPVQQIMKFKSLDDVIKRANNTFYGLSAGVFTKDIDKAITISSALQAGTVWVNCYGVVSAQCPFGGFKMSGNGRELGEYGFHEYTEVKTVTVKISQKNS

ALDH1A2 = target: T8, ALDH1A2 (Homo sapiens, UniProt O94788); assay: ALDH1A2 activity assay, propionaldehyde/NAD+; format: biochemical; conditions: up to 250 μM
T8 sequence (O94788 1-518): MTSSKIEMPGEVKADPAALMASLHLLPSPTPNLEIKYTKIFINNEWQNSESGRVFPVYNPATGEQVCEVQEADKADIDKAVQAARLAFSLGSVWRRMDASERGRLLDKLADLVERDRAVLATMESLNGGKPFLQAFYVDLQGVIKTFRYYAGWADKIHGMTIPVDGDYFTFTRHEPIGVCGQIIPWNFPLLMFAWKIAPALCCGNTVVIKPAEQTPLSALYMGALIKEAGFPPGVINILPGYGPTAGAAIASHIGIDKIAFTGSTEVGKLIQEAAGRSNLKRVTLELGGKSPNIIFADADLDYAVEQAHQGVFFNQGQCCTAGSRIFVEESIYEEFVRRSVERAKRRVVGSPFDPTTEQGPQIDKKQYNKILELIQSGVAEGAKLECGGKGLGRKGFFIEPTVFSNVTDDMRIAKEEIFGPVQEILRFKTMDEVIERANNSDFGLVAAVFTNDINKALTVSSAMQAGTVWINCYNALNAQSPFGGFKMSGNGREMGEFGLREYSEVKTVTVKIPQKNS

ALDH3A1 [5] = target: T3, ALDH3A1; assay: Steady-state kinetics, mode of inhibition of ALDH3A1; format: biochemical

## CC(=O)Nc1ccc(Nc2ccc(S(C)(=O)=O)cc2[N+](=O)[O-])cc1 [CB29, N-[4-{(4-(methylsulfonyl)-2-nitrophenyl)-4-amino}-phenyl]-acetamide]
[1]
  decrease of ALDH3A1 activity in A549 cell lysate: > 95%
[2]
  homogeneous solution formed: ≥ 100 µM
SF767 cells; 50 μM inhibitor + […] mafosfamide, 19 hours, MTT, p<0.005
  increase in mafosfamide chemosensitivity, SF767: ~2 fold
SF767 cells; 50 μM inhibitor alone, 19 hours, MTT, Figure 4B grey bars
  effect on cell proliferation as single agent, SF767 (in words): little effect
SF767 cells; inhibitor 50 μM, Figure 5B
  decrease of ED50 value of mafosfamide in the presence of inhibitor, SF767: 1.6 fold
SF767 cells; inhibitor 50 μM, mafosfamide 0-250 μM, MTT, Figure 5B
  ED50 of mafosfamide in the presence of inhibitor, SF767: 92 ± 4 µM
ALDH1A3
  inhibition toward ALDH1A3: < 5%
ALDH3A1 [3]
  decrease of activity of recombinant ALDH3A1: ~ 97%
[4]
  decrease of ALDH3A1 activity in SF767 cell lysate: > 90%
CCD-13Lu cells; 50 μM inhibitor + 40 μM mafosfamide
  enhancement of mafosfamide sensitivity, CCD-13Lu (in words): did not show mafosfamide chemosensitivity
CCD-13Lu cells; 50 μM inhibitor
  cytotoxicity / proliferation with inhibitor alone, CCD-13Lu (in words): unaffected
A549 cells
  effect on cell proliferation as single agent, A549 (in words): little effect
ALDH2
  inhibition toward ALDH2: < 5%
ALDH1B1
  inhibition toward ALDH1B1: < 5%
ALDH1A1
  inhibition toward ALDH1A1: < 5%
ALDH1A2
  inhibition toward ALDH1A2: < 5%
ALDH3A1 [5]; competitive versus varied benzaldehyde, fixed NADP+ […], 10 nM ALDH3A1
  Ki: 4 µM
ALDH3A1 [5]; with respect to benzaldehyde
  mode of inhibition: competitive
